{
  "source": "paper PMC9927515",
  "about": "“Discovery and Mechanism of Action of a Novel Antimicrobial Peptide from an Earthworm” (Microbiology Spectrum, 2023)",
  "key": {"[1]": {"experiment": "Sensitivity to temperature (residual antibacterial rate)", "format": "physicochemical", "details": "water bath 50-100°C for 1 h; residual antibacterial rate by MIC method, OD600; especially in E. coli; Fig. S2a", "procedure": "(§1) The AMP was treated for 1 h with a water bath heated at 50, 60, 70, 80, 90, or 100°C to evaluate temperature sensitivity, while the pH was adjusted to 2, 4, 6, 8, 10, and 12 and then back to 7.4 after 1 h to evaluate pH sensitivity. The changes in antibacterial activity were determined using the MIC method, as follows: antibacterial rate = [(OD600 positive control − OD600 sample)/(OD600 positive control − OD600 negative control)] × 100, where OD600 is the optical density at 600 nm.\n(§2) Table S1 Sequences of 21 synthetic peptides\n(§3) Table S3 Sequences and MICs of derivatives of EWAMP.15\n(§4) Table S4 Sequences and MICs of Alanine scanning derivatives\n(§5) Table S5 Sequences and MICs of Arg and Lys derivatives\n(§6) Table S6 Summary of membrane thickness\n(§7) Table S7 Primers used in RT-PCR\n(§8) Fig. S1 MICs of EWAMP.15 12 -24 derivatives that were replaced in different sites. In\n(§9) the X-axis, the number and the letter represent the replaced site and the amino acid residue.\n(§10) Fig. S2 Physical stability and in vitro toxicity of EWAMP-R. (a) Residual antibacterial\n(§11) rates after water heating for 1 h showing the temperature stability. (b) Residual antibacterial\n(§12) rates after acid or alkaline solution treatment showing the pH stability. (c) Hemolytic\n(§13) and negative controls. (d) Cell survival rate of LO2 after EWAMP-R treatment. All the cell\n(§14) survival rate was above 95%.\n(§15) Fig. S3 Root-mean-squared deviation (RMSD) and root-mean-squared fluctuation […]"}, "[2]": {"experiment": "Sensitivity to pH (residual antibacterial rate)", "format": "physicochemical", "details": "pH adjusted to 2-12, back to 7.4 after 1 h; residual antibacterial rate by MIC method, OD600; especially in E. coli; Fig. S2b", "procedure": "as §1, §2, §3, §4, §5, §6, §7, §8, §9, §10, §11, §12, §13, §14, §15"}, "[3]": {"test_system": "sheep blood", "format": "cell-based", "procedure": "Sterile defibrinated sheep blood (Titan, Shanghai, China) was kept at 4°C and was used within 3 days after being received. Hemolysis assessment was conducted following the method of Liu et al. ([34]). The hemolysis rate was calculated using the following formula: hemolysis rate = [([…] sample - […] blank)/([…] 0.2% Triton X-100 - […] blank)] × 100."}},
  "note": "Where no end group is shown, it is not given here.",
  "data": [
    {"sequence": "RIWWSGGWRRWRW [EWAMP-R]", "values": [
      {"measurement": "stability of antibacterial activity under temperature changes", "setting": "[1]", "value": "comparative stability"},
      {"measurement": "stability of antibacterial activity under pH changes", "setting": "[2]", "value": "comparative stability"},
      {"measurement": "hemolytic activity: absorbance in treatment groups versus negative controls", "setting": "[3]", "value": "not significantly different"}
    ]}
  ]
}
